Measurements reported in US20240041796A1, “ANTI-INFLAMMATORY COMPOSITION COMPRISING N-BENZYL-N-METHYLDECAN-1-AMINE OR A DERIVATIVE THEREOF AS AN ACTIVE INGREDIENT” (PUSAN NATIONAL UNIVERSITY INDUSTRY-UNIVERSITY COOPERATION …, priority 2022, published 2024).

How the values were obtained:
NF-KB P65 protein = assay: NF-KB P65 distribution in cytoplasm and nucleus of LPS-treated THP-1 cells, immunoblotting; format: cell-based, human; details: FIG. 2D
From the text: Moreover, the mononuclear THP-1 cell line treated with lipopolysaccharide (LPS) and BMDA/DMMA under the same conditions was partitioned into cytoplasmic and nuclear portions. Distribution of NF-KB P65 protein in the cytoplasm and nucleus was examined based on immunoblotting.

[1] = system: human THP-1 monocytic cell line; assay: ELISA of inflammatory cytokines in supernatant of LPS-treated THP-1 cells; format: cell-based; details: LPS 1 μg/ml, FIG. 2C
Method: Each of BMDA (FMJ-G0) or DMMA (FMJ-G4) was added to a culture medium at concentrations of […], and 1 μM in a 6-well plate. The human THP-1 monocytic cell line (5×10^5 cells/well) was cultured therein for 3 hours. Each well was treated with lipopolysaccharide at a concentration of 1 μg/ml. After 1 hour, centrifugation was performed to obtain a supernatant which was used in an ELISA for inflammatory cytokine evaluation. Cell lysate was added to the collected THP-1 cells for immunoblotting.

Balb/C mice = assay: DNCB-induced atopic dermatitis model, cosmetic cream applied to the skin; format: in vivo, mouse; details: for DNCB-induced atopic dermatitis (level of dermatitis): cosmetic cream (0.3% active; Lidomax ointment 0.15%) applied to the back for 2 weeks, 9C; for DNCB-induced atopic dermatitis (level of dermatitis) / hair regrowth on the skin: FIG. 9A; for size of the (inguinal) lymph node: cosmetic cream (Lidomax ointment 0.15%) applied for 2 weeks, FIG. 9B, 9D; for hair regrowth on the skin: cosmetic cream applied for 2 weeks; for thickness of the dermis: hematoxylin-eosin stained skin sections, FIG. 10A-B; for phosphorylation level of JNK in skin / phosphorylation level of NF-KB in skin / phosphorylation level of p38MAPK in skin: immunoblotting, FIG. 11D; for phosphorylation level of JNK in skin / phosphorylation level of NF-KB in skin / phosphorylation level of p38MAPK in skin / concentration of IgE in the blood: vs control group; for amount of COX2 transcriptome in skin / amount of IL-1β transcriptome in skin / amount of IL-6 transcriptome in skin / amount of TNF-α transcriptome in skin / amount of iNOS transcriptome in skin: qRT-PCR, vs DNCB control, FIG. 11A-C; for concentration of IgE in the blood: serum ELISA, 2 weeks of treatment, FIG. 10D; for invasion of mast cells into the dermis: toluidine-blue staining, FIG. 10C
Method: Wed added 0.3 g of olive wax to 2 mL of soybean oil (Sigma-Aldrich) in a glass tube (15 ml), and put the tube in a 75° C. water-bath, and performed a double boiling thereon to melt the olive wax for 30 minutes while vortexing the tube at 10 minute interval. Under the same conditions, 7.7 ml of purified water was put into a 75° C. water-bath and heated the same for 30 minutes. Next, 7.5 ml of purified water was poured into the tube containing the olive wax and the mixture was stirred well via vortexing. Then, […] (0.3%) of each of BMDA and derivatives thereof (FMJ-G0, FMJ-G4, FMJ-G1, FMJ-G2, FMJ-G3) as synthesized in Examples 1 and 3 were added to the mixture, followed by stirring. The reaction product was cooled in ice and prepared in the form of a cosmetic cream.
In order to induce atopic dermatitis using 5-week-old Balb/C mice, hair on the back of the mouse was removed therefrom, and after one day, a 0.5% solution in which DNCB (2,4-dinitrochlorobenzne) is mixed with acetone and olive oil (3:1) was prepared, and then was applied thereon for 3 consecutive days by 150 μL per each day. Thereafter, the solution of the same concentration was applied to the back area from which the hair was removed twice a week and this process continued for 2 weeks. Further, to alleviate atopic dermatitis induced in this way, the cosmetic cream containing each of BMDA (FMJ-G0) and the derivatives thereof (FMJ-G4, FMJ-G1, FMJ-G2, FMJ-G3) of the present disclosure as prepared above was applied to the back of rats with the induced atopic dermatitis for 2 weeks, and then, changes in skin inflammation were examined.
The experimental results of FIG. 10A and FIG. 10B was obtained as follows as in FIG. 9. The skin tissue was removed from the back of the mouse in the group, and was placed fixedly in 10% formaldehyde for 48 hours, and paraffin pieces were made, and the pieces were thinly sliced so as to have a thickness of 4 μm and was subjected to hematoxylin-esoin staining. Then, whether the damaged skin tissue was recovered by each of BMDA (FMJ-G0) and DMMA (FMJ-G4) was examined using an optical microscope equipped with a Leica application (Leica Microsystems, Switzerland).
To this end, the atopic dermatitis is induced in FIG. 9, and on 2 weeks since the treatment with BMDA (FMJ-G0) and DMMA (FMJ-G4), blood (500 ul) is collected from the hepatic veins of the rats of the above groups, and left at room temperature for 30 minutes. Then, serum was separated and prepared via centrifugation, and then, the IgE concentration related to the allergic reaction was measured through ELISA using the serum thus prepared.
Anti-mouse IgE (Pharmingen, CA, USA) was diluted with PBS (pH 7.4) on a 96-well plate, 100 μL thereof was coated on each 96-well plate, and then left at 4° C. for 12 hours. The plate was washed with PBS containing 0.05% tween. Blocking was performed thereon for 1 hour with PBS containing 1% BSA, 5% sucrose, and 0.05% NaN3. Washing was performed thereon several times using washing buffer. Recombinant IgE and serum were added thereto, and reaction occurred at 37° C. for 2 hours, and each well was washed again, and biotinylated IgE (Pharmingen, CA, USA) was added thereto. Reaction occurred for 2 hours. After washing the well, avidin peroxidase was added thereto and reaction occurred at 37° C. for 30 minutes. Then, the well was washed and then, ABTS solution as a substrate was added thereto. Absorbance was measured at 405 nm using ELISA reader (Epoch2, Biotek, VT, USA).
FIG. 11 show data obtained as follows. The atopic dermatitis was induced as described in FIG. 9, and on 2 weeks since the treatment with BMDA or DMMA (FMJ-G0/G4), a portion of the skin tissue of the rats in the groups were put in Trisol solution and the tissue was crushed in a sonicator. […]

| Compound | NF-KB expression and migration in the nucleus (NF-KB P65 protein) | activity of the transcription factor NF-KB (NF-KB P65 protein) | production of IL-1β [1] | production of TNF-α [1] | DNCB-induced atopic dermatitis (level of dermatitis) (Balb/C mice) | size of the (inguinal) lymph node (Balb/C mice) | hair regrowth on the skin (Balb/C mice) | thickness of the dermis (Balb/C mice) | phosphorylation level of JNK in skin (Balb/C mice) | phosphorylation level of NF-KB in skin (Balb/C mice) | phosphorylation level of p38MAPK in skin (Balb/C mice) | amount of COX2 transcriptome in skin (Balb/C mice) | amount of IL-1β transcriptome in skin (Balb/C mice) | amount of IL-6 transcriptome in skin (Balb/C mice) | amount of TNF-α transcriptome in skin (Balb/C mice) | amount of iNOS transcriptome in skin (Balb/C mice) | concentration of IgE in the blood (Balb/C mice) | invasion of mast cells into the dermis (Balb/C mice) |
| --- | --- | --- | --- | --- | --- | --- | --- | --- | --- | --- | --- | --- | --- | --- | --- | --- | --- | --- |
| CCCCCCCCCCN(C)Cc1ccc(OC)cc1 [DMMA, Decyl-(4-methoxy-benzyl)-methyl-amine] | inhibited | inhibited | inhibited | inhibited | significantly alleviated | the same as that of the spleen | observed | significantly reduced | significantly lowered | significantly lowered | significantly lowered | markedly lowered | markedly lowered | markedly lowered | markedly lowered | markedly lowered | significantly lower | prevents |
| CCCCCCCCCCN(C)Cc1ccccc1 [BMDA, N-benzyl-N-methyldecan-1-amine] | inhibited | inhibited | inhibited | inhibited | significantly alleviated | the same as that of the spleen | observed | significantly reduced | significantly lowered | significantly lowered | significantly lowered | markedly lowered | markedly lowered | markedly lowered | markedly lowered | markedly lowered | significantly lower | prevents |
